The results in this text go back to ChEMBL document CHEMBL5705903, “A DNA Hypomethylation Signature Predicts Antitumor Activity of LSD1 Inhibitors in SCLC” (Cancer Cell, 2015).

Activity calls are given as the source filed them. The rule behind the calls is not given here.

A short description of data set [1]: Effect on cleaved PARP level in human NCI-H1417 cells assessed as fold change at 100 nM measured after 14 days by Western blot analysis (reference value: 1.00). To be noted: time 14 day. The data set is classed as functional.
A short description of data set [2]: Effect on cleaved PARP level in human NCI-H1417 cells assessed as fold change at 1000 nM measured after 14 days by Western blot analysis (reference value: 1.00). Type of data set: functional. To be noted: time 14 day. Background: A western blot detects proteins with antibodies after separation by electrophoresis.
A short description of data set [3]: Effect on cleaved PARP level in human NCI-H1417 cells assessed as relative expression at 1000 nM measured after 10 days by Western blot analysis (reference value: 0.19). To be noted: time 10 day. The data set is classed as functional.
Data set [4] in a line: Effect on cleaved PARP level in human NCI-H1417 cells assessed as relative expression at 100 nM measured after 7 days by Western blot analysis (reference value: 0.10). Type of data set: functional. To be noted: time 7 day.
Data set [5] can be described thus: Effect on cleaved PARP level in human COLO-668 cells assessed as relative expression at 100 nM measured after 14 days by Western blot analysis (reference value: 3.50). To be noted: time 14 day. The data set is classed as functional.
Data set [6] can be described thus: Effect on cleaved PARP level in human NCI-H526 cells assessed as fold change at 10 nM measured after 10 days by Western blot analysis (reference value: 1.00). The data set is classed as functional. To be noted: time 10 day.
Data set [7] relates to NCI-H526. As to the kind of experiment: Antitumor activity against human NCI-H526 cells xenografted in nude mouse assessed as mean tumor volume at 1.5 mg/kg, po administered daily measured twice weekly (reference value: 2359 +/- 247 mm3). The data set is classed as functional. A general note: In xenograft studies the graft and the host belong to different species.
Data set [8] is described as follows: Effect on cleaved PARP level in human NCI-H510 cells assessed as relative expression at 1000 nM measured after 14 days by Western blot analysis (reference value: 0.01). To be noted: time 14 day. The data set is classed as functional, NCI-H510A.
Data set [9] is described as follows: Effect on cleaved PARP level in human NCI-H524 cells assessed as fold change at 10 nM measured after 14 days by Western blot analysis (reference value: 1.00). Type of data set: functional. To be noted: time 14 day.
Data set [10] in a line: Effect on cleaved PARP level in human NCI-H510 cells assessed as fold change at 10 nM measured after 7 days by Western blot analysis (reference value: 1.00). Type of data set: functional, NCI-H510A. To be noted: time 7 day.
The nature of data set [11]: Effect on cleaved PARP level in human NCI-H69 cells assessed as relative expression at 100 nM measured after 14 days by Western blot analysis (reference value: 0.03). The data set is classed as functional. To be noted: time 14 day.
Data set [12] is described as follows: Effect on cleaved PARP level in human NCI-H1694 cells assessed as fold change at 100 nM measured after 7 days by Western blot analysis (reference value: 1.00). The data set is classed as functional. To be noted: time 7 day.
A short description of data set [13]: Toxicity in rat assessed as thrombocytopenia measured for 28 days. To be noted: in vivo, 672 h, time 28 day.
Data set [14] relates to NCI-H526. As to the kind of experiment: In vivo inhibition of LSD1 in human NCI-H526 cells xenografted in nude mouse assessed as change in IGFBP2 gene expression measured after 24 hrs post single administration by qRT-PCR analysis. The data set is classed as functional, organism-based. To be noted: dose 0.06-135 mg/kg.
The nature of data set [15]: Effect on cleaved PARP level in human NCI-H2171 cells assessed as relative expression at 100 nM measured after 7 days by Western blot analysis (reference value: 0.02). Type of data set: functional. To be noted: time 7 day.
Data set [16] can be described thus: Toxicity in dog assessed as effect on hemodynamics measured for 28 days. Also noted: species or system Canis lupus familiaris. To be noted: in vivo, 672 h, time 28 day.
A short description of data set [17]: Effect on cleaved PARP level in human NCI-H2171 cells assessed as fold change at 10 nM measured after 7 days by Western blot analysis (reference value: 1.00). Type of data set: functional. To be noted: time 7 day.
Data set [18] can be described thus: Toxicity in dog assessed as myelofibrosis measured for 28 days. Further details: species or system Canis lupus familiaris. To be noted: in vivo, 672 h, time 28 day.
Data set [19] in a line: Effect on cleaved PARP level in human NCI-H1694 cells assessed as relative expression at 1000 nM measured after 14 days by Western blot analysis (reference value: 0.25). Type of data set: functional. To be noted: time 14 day.
Data set [20] can be described thus: Effect on cleaved PARP level in human NCI-H524 cells assessed as fold change at 1000 nM measured after 7 days by Western blot analysis (reference value: 1.00). The data set is classed as functional. To be noted: time 7 day.
A short description of data set [21]: Effect on cleaved PARP level in human NCI-H889 cells assessed as relative expression at 100 nM measured after 10 days by Western blot analysis (reference value: 0.33). Type of data set: functional. To be noted: time 10 day.
A short description of data set [22]: Effect on cleaved PARP level in human NCI-H1417 cells assessed as relative expression at 100 nM measured after 10 days by Western blot analysis (reference value: 0.19). Type of data set: functional. To be noted: time 10 day.
The nature of data set [23]: Effect on cleaved PARP level in human NCI-H1694 cells assessed as relative expression at 1000 nM measured after 7 days by Western blot analysis (reference value: 0.25). To be noted: time 7 day. Type of data set: functional.
A short description of data set [24]: Toxicity in mouse xenografted with human NCI-H526 cells assessed as body weight loss at 1.5 mg/kg, po administered daily measured for 30 days. To be noted: in vivo, 720 h, time 30 day. Type of data set: organism-based.
Data set [25] in a line: Effect on cleaved PARP level in human NCI-H146 cells assessed as fold change at 1000 nM measured after 10 days by Western blot analysis (reference value: 1.00). Type of data set: functional. To be noted: time 10 day.
Data set [26] in a line: Effect on cleaved PARP level in human NCI-H526 cells assessed as fold change at 100 nM measured after 7 days by Western blot analysis (reference value: 1.00). Type of data set: functional. To be noted: time 7 day.
The nature of data set [27]: Effect on cleaved PARP level in human NCI-H69 cells assessed as fold change at 100 nM measured after 10 days by Western blot analysis (reference value: 1.00). The data set is classed as functional. To be noted: time 10 day.
Data set [28] is described as follows: Effect on cleaved PARP level in human NCI-H526 cells assessed as relative expression at 1000 nM measured after 14 days by Western blot analysis (reference value: 0.66). To be noted: time 14 day. Type of data set: functional.
Data set [29] in a line: Effect on cleaved PARP level in human NCI-H69 cells assessed as relative expression at 1000 nM measured after 10 days by Western blot analysis (reference value: 0.03). The data set is classed as functional. To be noted: time 10 day.
Data set [30] can be described thus: Effect on cleaved PARP level in human NCI-H69 cells assessed as relative expression at 10 nM measured after 7 days by Western blot analysis (reference value: 0.02). Type of data set: functional. To be noted: time 7 day.
Data set [31] in a line: Effect on cleaved PARP level in human NCI-H2171 cells assessed as fold change at 1000 nM measured after 10 days by Western blot analysis (reference value: 1.00). Type of data set: functional. To be noted: time 10 day.
The next data set relates to NCI-H1417. As to the kind of experiment: Effect on cell cycle in human NCI-H1417 cells assessed as cell accumulation at […] phase upto 1000 nM measured for 7 to 14 days by flow cytometry. Type of data set: functional, cell-based. To be noted: time 7-14 day. (In general: Flow cytometry measures light scatter and fluorescence of single cells or particles in a stream.)

The nature of data set [32]: Effect on cleaved PARP level in human NCI-H524 cells assessed as relative expression at 10 nM measured after 14 days by Western blot analysis (reference value: […]). Type of data set: functional. To be noted: time 14 day.
Data set [33] is described as follows: Effect on cleaved PARP level in human NCI-H2171 cells assessed as relative expression at 10 nM measured after 7 days by Western blot analysis (reference value: 0.02). The data set is classed as functional. To be noted: time 7 day.
Data set [34] is described as follows: Antitumor activity against human PDX L36 cells xenografted in mouse assessed as tumor growth inhibition at 1.5 mg/kg administered daily measured for 20 days relative to control. The data set is classed as functional. To be noted: PDX LX36, 480 h, time 20 day, read-out: TGI.
Data set [35] in a line: AUC (0 to t) in mouse at 5.5 mg/kg, ip by HPLC/MS/MS analysis. To be noted: in vivo. Type of data set: ADME, organism-based.

Consider `O=C(O)c1ccc(CN2CCC(CN[C@@H]3C[C@H]3c3ccccc3)CC2)cc1` [GSK2879552], for which the “fold change (FC)” value in data set [1] is recorded as 0.83; in [2], 1.1; in [6] it was 0.57; in data set [9], 0.79; in data set [10], 1.27; in data set [12] it was 1.11. The “fold change (FC)” value in [17] was 1.53; in data set [20] it was 1.77; in [25], 0.89; in data set [26], 1.2; in data set [27], 1.62; in [31] it was 1.33. For the same compound, the Activity worked out at 0.4 in data set [3]; 0.29 in [4]; 0.89 in data set [5]; 1113 mm3 with NCI-H526 [7]; 0.47 in data set [8]; 0.16 in data set [11]. The Activity result was “Toxic” in [13]; 0.03 in [15]; “Toxic” in data set [16]; “Toxic” in data set [18]; 0.21 in [19]; 0.74 in data set [21]. Also, the Activity in [22] is given as 0.4; in [23] it was 0.36; in [24], “Non-Toxic”; in [28], 0.9; in [29], 0.09; in data set [30] it was 0.02. Also, the Activity was 1.2 in data set [32] and 0.03 in [33]. In addition, in the data set with NCI-H526 [14], the inhibition entry is “Dose-Dependent Effect”. Moreover, in the data set with NCI-H1417, the result was inactive. In addition, in [34], the inhibition in vivo at 1.5 mg/kg was 19%.
A word on the AUC(0-t): it is the area under the concentration-time curve up to a stated or last time point. A higher AUC(0-t) goes with more exposure. Regarding `c1ccc([C@@H]2C[C@H]2NC2CCNCC2)cc1`, the AUC(0-t) in data set [35] came to 871 ng·h/mL.
